Experimental data published in the supplement of paper PMC8617591.

Legend:
[1] = system: Mycobacterium tuberculosis Erdman (autoluminescent); test: Einf, fitted maximum growth inhibition of three-drug combination (fraction); higher = stronger maximal inhibition
Description: (§1)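 DiaMOND equipotent three-drug combination dose responses (10 doses, 1.5- or 2-fold spacing, centred on IC90) against autoluminescent M. tuberculosis Erdman in 8 in vitro models. Read-out is OD600, or luminescence for the intracellular and dormancy models, normalised to untreated wells. Hill-fit Einf, AUC25 and GRinf are potency metrics; FIC50 and FIC90 are total Loewe fractional inhibitory concentrations as log2 (negative = synergy).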

[2] = system: Mycobacterium tuberculosis Erdman (autoluminescent); test: AUC25, normalised area under dose response up to IC25 (three-drug combination) (fraction (0-1)); higher = more potent at low dose
Description: as §1

[3] = system: Mycobacterium tuberculosis Erdman (autoluminescent); test: total FIC50 (Loewe) at 50% inhibition, three-drug combination (log2); higher = more antagonistic
Description: as §1

[4] = system: Mycobacterium tuberculosis Erdman (autoluminescent); test: total FIC90 (Loewe) at 90% inhibition, three-drug combination (log2); higher = more antagonistic
Description: as §1

[5] = system: Mycobacterium tuberculosis Erdman (autoluminescent); test: GRinf, maximum normalised growth rate inhibition (three-drug combination) (unitless (-1 to 1)); higher = less effect (negative = killing)
Description: as §1

COc1nc2ccc(Br)cc2cc1[C@@H](c1ccccc1)[C@@](O)(CCN(C)C)c1cccc2ccccc12 [bedaquiline] + O=[N+]([O-])c1cn2c(n1)OC[C@@H](OCc1ccc(OC(F)(F)F)cc1)C2 [pretomanid] + CO[C@H]1/C=C/O[C@@]2(C)Oc3c(C)c(O)c4c(O)c(c(/C=N/N5CCN(C6CCCC6)CC5)c(O)c4c3C2=O)NC(=O)/C(C)=C\C=C\[C@H](C)[C@H](O)[C@@H](C)[C@@H](O)[C@@H](C)[C@H](OC(C)=O)[C@@H]1C [rifapentine]
Settings	AUC25, [2]	Einf, [1]	GRinf, [5]	total FIC50, [3]	total FIC90, [4]
in vitro model: acidic pH 5.7, time point: constant (~7 days, model-specific)	0.116	0.943	-0.512	0.516	–
in vitro model: acidic pH 5.7, time point: terminal (~4-5 doublings, model-specific)	0.0913	0.987	-0.4	0.436	0.698
in vitro model: intracellular J774, time point: constant = terminal	–	0.985	-0.531	–	0.0139

Settings	AUC25, [2]	Einf, [1]	GRinf, [5]	total FIC50, [3]	total FIC90, [4]
in vitro model: butyrate, time point: constant (~7 days, model-specific)	0.088	0.933	-0.0563	0.655	0.181
in vitro model: butyrate, time point: terminal (~4-5 doublings, model-specific)	0.0789	0.971	-0.0507	0.541	0.744
in vitro model: cholesterol 0.05 mM, time point: constant (~7 days, model-specific)	0.106	0.751	-0.236	0.454	–
in vitro model: cholesterol 0.05 mM, time point: terminal (~4-5 doublings, model-specific)	0.0678	0.929	-0.207	0.994	0.888
in vitro model: cholesterol-high 0.2 mM, time point: constant (~7 days, model-specific)	0.0733	0.918	-0.21	1.12	1.36
in vitro model: cholesterol-high 0.2 mM, time point: terminal (~4-5 doublings, model-specific)	0.0496	0.999	-0.642	1.19	0.947
in vitro model: dormancy (butyrate + nitrate, low O2), time point: constant (~7 days, model-specific)	0.0511	0.899	0.22	0.0544	-0.43
in vitro model: dormancy (butyrate + nitrate, low O2), time point: terminal (~4-5 doublings, model-specific)	0.032	0.983	-0.177	0.0788	-0.459
in vitro model: standard 7H9 glycerol, time point: constant = terminal	0.072	0.922	-0.0207	-0.0622	0.308
in vitro model: valerate, time point: constant (~7 days, model-specific)	0.0905	0.904	-0.217	1.07	–
in vitro model: valerate, time point: terminal (~4-5 doublings, model-specific)	0.0466	0.947	-0.0362	1.15	0.748

COc1nc2ccc(Br)cc2cc1[C@@H](c1ccccc1)[C@@](O)(CCN(C)C)c1cccc2ccccc12 [bedaquiline] + O=[N+]([O-])c1cn2c(n1)OC[C@@H](OCc1ccc(OC(F)(F)F)cc1)C2 [pretomanid] + CO[C@H]1/C=C/O[C@@]2(C)Oc3c(C)c(O)c4c(O)c(c(/C=N/N5CCN(C)CC5)c(O)c4c3C2=O)NC(=O)/C(C)=C\C=C\[C@H](C)[C@H](O)[C@@H](C)[C@@H](O)[C@@H](C)[C@H](OC(C)=O)[C@@H]1C [rifampicin]
Settings	AUC25, [2]	Einf, [1]	GRinf, [5]	total FIC50, [3]	total FIC90, [4]
in vitro model: acidic pH 5.7, time point: constant (~7 days, model-specific)	0.111	0.938	-0.379	0.68	–
in vitro model: acidic pH 5.7, time point: terminal (~4-5 doublings, model-specific)	0.0826	0.993	-0.38	0.724	0.613
in vitro model: intracellular J774, time point: constant = terminal	–	0.978	-0.416	–	-0.222

Settings	AUC25, [2]	Einf, [1]	GRinf, [5]	total FIC50, [3]	total FIC90, [4]
in vitro model: butyrate, time point: constant (~7 days, model-specific)	0.106	0.931	-0.0326	0.367	0.71
in vitro model: butyrate, time point: terminal (~4-5 doublings, model-specific)	0.0986	0.977	-0.041	0.237	0.69
in vitro model: cholesterol 0.05 mM, time point: constant (~7 days, model-specific)	0.116	0.764	-0.188	0.697	–
in vitro model: cholesterol 0.05 mM, time point: terminal (~4-5 doublings, model-specific)	0.0763	0.813	0.0382	0.812	-0.454
in vitro model: cholesterol-high 0.2 mM, time point: constant (~7 days, model-specific)	0.0584	0.921	-0.229	1.22	1.66
in vitro model: cholesterol-high 0.2 mM, time point: terminal (~4-5 doublings, model-specific)	0.0574	1	-0.652	1.17	0.914
in vitro model: dormancy (butyrate + nitrate, low O2), time point: constant (~7 days, model-specific)	0.0611	0.9	0.255	0.0572	-0.559
in vitro model: dormancy (butyrate + nitrate, low O2), time point: terminal (~4-5 doublings, model-specific)	0.0439	0.982	-0.104	0.00851	-0.259
in vitro model: standard 7H9 glycerol, time point: constant = terminal	0.0794	0.937	-0.1	0.14	-0.371
in vitro model: valerate, time point: constant (~7 days, model-specific)	0.103	0.897	-0.11	1.04	–
in vitro model: valerate, time point: terminal (~4-5 doublings, model-specific)	0.0424	0.951	-0.0825	1.09	0.566

COc1nc2ccc(Br)cc2cc1[C@@H](c1ccccc1)[C@@](O)(CCN(C)C)c1cccc2ccccc12 [bedaquiline] + O=[N+]([O-])c1cn2c(n1)OC[C@@H](OCc1ccc(OC(F)(F)F)cc1)C2 [pretomanid] + NC(=O)c1cnccn1 [pyrazinamide]
Settings	AUC25, [2]	Einf, [1]	GRinf, [5]	total FIC50, [3]	total FIC90, [4]
in vitro model: acidic pH 5.7, time point: constant (~7 days, model-specific)	0.0919	0.881	-0.623	0.152	-0.764
in vitro model: acidic pH 5.7, time point: terminal (~4-5 doublings, model-specific)	0.0867	0.983	-0.421	0.197	0.0646
in vitro model: intracellular J774, time point: constant = terminal	–	0.972	-0.386	–	0.176

Settings	AUC25, [2]	Einf, [1]	GRinf, [5]	total FIC50, [3]	total FIC90, [4]
in vitro model: butyrate, time point: constant (~7 days, model-specific)	0.119	0.946	-0.193	-0.0189	1.37
in vitro model: butyrate, time point: terminal (~4-5 doublings, model-specific)	0.102	0.978	-0.539	0.212	1.21
in vitro model: cholesterol 0.05 mM, time point: constant (~7 days, model-specific)	0.115	0.748	-0.231	–	–
in vitro model: cholesterol 0.05 mM, time point: terminal (~4-5 doublings, model-specific)	0.106	0.909	-0.185	0.657	–
in vitro model: cholesterol-high 0.2 mM, time point: constant (~7 days, model-specific)	0.0759	0.934	-0.252	0.548	–
in vitro model: cholesterol-high 0.2 mM, time point: terminal (~4-5 doublings, model-specific)	0.0678	0.998	-0.58	0.646	0.318
in vitro model: dormancy (butyrate + nitrate, low O2), time point: constant (~7 days, model-specific)	0.043	0.896	0.257	-0.949	-1.45
in vitro model: dormancy (butyrate + nitrate, low O2), time point: terminal (~4-5 doublings, model-specific)	0.0578	0.983	-0.0996	-1.05	-1.31
in vitro model: standard 7H9 glycerol, time point: constant = terminal	0.0709	0.957	-0.0903	-0.132	–
in vitro model: valerate, time point: constant (~7 days, model-specific)	0.0952	0.866	-0.0433	0.178	–
in vitro model: valerate, time point: terminal (~4-5 doublings, model-specific)	0.062	0.938	-0.0146	0.143	-0.0602
